Data reported in patent US20250382274A1, “COMPOSITIONS AND METHODS FOR THE TREATMENT OF PARKINSON'S AND GAUCHER DISEASE” (CHILDREN'S HOSPITAL MEDICAL CENTER, priority 2024, published 2025).
Where a chain is given by its changes, count along the chain named.

Experiments:
[1] = target: T1, GCase in healthy human fibroblasts (Homo sapiens, UniProt P04062); assay: EC50 cell-based assay for GCase, healthy human fibroblasts (GCase cell); details: 5 days compound treatment (0-20 μM)
T1 construct: Healthy human fibroblasts (GCase cell); endogenous in cells; host or cells: healthy human fibroblasts
T1 sequence (P04062 40-536): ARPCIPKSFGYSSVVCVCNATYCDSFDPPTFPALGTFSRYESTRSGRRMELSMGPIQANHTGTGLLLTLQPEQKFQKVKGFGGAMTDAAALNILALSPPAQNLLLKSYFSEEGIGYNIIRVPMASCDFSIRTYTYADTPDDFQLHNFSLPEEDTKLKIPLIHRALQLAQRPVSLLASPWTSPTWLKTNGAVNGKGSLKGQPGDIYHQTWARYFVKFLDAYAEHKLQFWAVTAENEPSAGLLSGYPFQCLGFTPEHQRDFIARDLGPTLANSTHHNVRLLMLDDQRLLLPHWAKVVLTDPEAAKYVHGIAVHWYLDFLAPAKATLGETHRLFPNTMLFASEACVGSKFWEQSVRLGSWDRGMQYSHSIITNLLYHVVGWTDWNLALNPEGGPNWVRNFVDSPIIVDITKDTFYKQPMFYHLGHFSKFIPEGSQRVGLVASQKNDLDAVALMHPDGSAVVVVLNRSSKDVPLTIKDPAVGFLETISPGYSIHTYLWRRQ
Description: (§1) In cell assays, GCase activity measurements were carried out on harvested cell pellets on the 5th day of Compound treatment. Healthy human fibroblasts (GCase cell), mutant N370/ΔGG (GCase N370S) or L444P/L444P (GCase L444P) were incubated with the Compound (0-20 μM) for 5 days with 15% fetal bovine serum (FBS) in Dulbecco's Modified Eagle Medium (DMEM) in 100 mm culture dishes. Fresh Medium with Compound were replaced every other day. On the 5th day of Compound treatment, harvested cell pellets were lysed with 1% Na-taurocholate (Tc) and 1% Triton X-100 (Tx), and mixed with the reaction buffer which contained 0.025 mM Citric phosphate buffer (pH 5.6), 0.25% Tc/Tx and 4 mM 4-MuGlu, then incubated at 37° C. for 1 hour. EC50 represents the concentration of a Compound that produces 50% of its maximal response in the cell-based GCase activity assay.
(§2) GCase activities were determined fluorometrically with 4-MuGlu. The relative fluorescence unit (RFU) of 4-MuGlu standard curve is generated with the plate reader (M5, Molecular Devise) as 1 n mole=56500 RFU. The human mutant Gaucher fibroblasts were purchased from Coriell Institute (Camden, NJ): N370/ΔGG (Cat #: GM00852) and L444P/L444P (cat #: GM00877)

[2] = target: T2, GCase L444P (L444P/L444P human mutant Gaucher fibroblasts) (Homo sapiens, UniProt P04062, L483P); assay: EC50 cell-based assay for GCase, mutant L444P/L444P fibroblasts (GCase L444P); details: 5 days compound treatment (0-20 μM)
T2 construct: The human mutant Gaucher fibroblasts were purchased from Coriell Institute; host or cells: human Gaucher fibroblasts L444P/L444P
T2 sequence (P04062 40-536 L483P): T1 sequence (P04062 40-536) with L444P
Description: as §1, §2

[3] = target: T3, GCase N370S (N370/ΔGG human mutant Gaucher fibroblasts) (Homo sapiens, UniProt P04062, N409S); assay: EC50 cell-based assay for GCase, mutant N370/ΔGG fibroblasts (GCase N370S); details: 5 days compound treatment (0-20 μM)
T3 construct: The human mutant Gaucher fibroblasts were purchased from Coriell Institute; host or cells: human Gaucher fibroblasts N370/ΔGG
T3 sequence (P04062 40-536 N409S): T1 sequence (P04062 40-536) with N370S
Description: as §1, §2

[4] = target: T4, GCase (purified enzyme, Velaglucerase alfa, VPRIV) (Homo sapiens, UniProt P04062); assay: GCase AC50 enzyme activity assay; assay type: biochemical; details: pH 5.6, 4-MuGlu substrate, compounds 0-40 μM
T4 construct: purchased Shire Human Genetic Therapies, Cambridge, MA
T4 sequence (P04062 40-536): T1 sequence (P04062 40-536)
Description: An in vitro enzyme assay was performed through a dose response curve of Compounds (0-40 μM) with purified enzyme (Velaglucerase alfa, VPRIV®, Shire Human Genetic Therapies, Cambridge, MA) in citric phosphate [0.025 mM] buffer (pH 5.6) where 4-MuGlu [4 mM] was the substrate. Compounds were pre-incubated with the enzyme for 40 minutes at room temperature prior to substrate addition, and then incubated at 37° C. for 1 hour. AC50 represents the concentration of a Compound that produces 50% of its maximal response in the in vitro GCase activity assay.
as §2

COc1ccc(NC(=O)c2nc3cccc(C(=O)NCC4CCCO4)c3o2)cc1 (stereo not drawn) [Compound 8, N7-((tetrahydrofuran-2-yl)methyl)-N2-(4-methoxyphenyl)benzo[d]oxazole-2,7-dicarboxamide]
< 10 µM: EC50 [1] | EC50 [2] | EC50 [3] | AC50 [4]

O=C(Nc1ccc(O)cc1)c1nc2cc(F)cc(C(=O)NCC3CCO3)c2o1 (stereo not drawn) [Compound 26, 5-fluoro-N2-(4-hydroxyphenyl)-N7-(oxetan-2-ylmethyl)benzo[d]oxazole-2,7-dicarboxamide]
< 10 µM: EC50 [1] | EC50 [2] | EC50 [3] | AC50 [4]

CN1CCC(NC(=O)C(C)(C)Oc2ccccc2C(=O)NCC2CCCO2)CC1 (stereo not drawn) [Compound 37, 2-(2-(1-methylpiperidin-4-ylcarbamoyl)propan-2-yloxy)-N-((tetrahydrofuran-2-yl)methyl)benzamide]
< 10 µM: EC50 [1] | EC50 [2] | EC50 [3] | AC50 [4]
